According to patent US6773705B1, “Methods for diagnosing and treating autoimmune disease” (General Hospital Corporation, priority 1998, dated 2004):
Square brackets hold non-standard residues; d marks the D form. Peptide text beside a SMILES is read from it. * marks the point of attachment. Nva = CCC[C@H](N)C(=O)O; Cbz = O=C(OCc1ccccc1)*

Legend:
[1] = target: NFκBp65-associated protein kinase (nuclear); format: biochemical, human; conditions: GST-CTD substrate, FIG. 1C
Description: (§2) GST-NFκp65 and GST-CTD were expressed in BL21 pLysS E. Coli cells and purified by selective absorption to glutathione sepharose beads. GST-NFκBp65 was incubated with Molt-4 cytosolic and nuclear extracts, prepared as described above. Reaction mixtures were washed in PBS. The precipitated complexes were then incubated with GST-CTD of RNA polymerase II large subunit in kinase buffer containing γ-[^32P]ATP as previously described (Hayashi et al., 1993, J. Biol. Chem., 268: 26790-26795; Faustman et al., 1989, Diabetes, 38: 1462-1468). One-fortieth of the input (I) and supernatant (S) fractions and 1/40 of the last wash (W) and pellet (P) fractions were used for in vitro kinase reaction. Protein complexes were collected by brief centrifugation, washed and then incubated with GST-CTD substrates in kinase buffer containing y-^32P ATP. The products of the in vitro kinase reactions were then analyzed on SDS-PAGE. […] To determine whether the kinase activity of NFκBp65-associated protein kinase were sensitive to DRB, the ability of DRB to inhibit the kinase activity of NFκBp65 association protein kinase was tested by examining the phosphorylation of CTD in the presence of different concentrations of DRB. […] Quantitation of the gel shown in FIG. 1C with an image analyzer (a BAS 3000 phosphorimager) was plotted on a graph. […]

[2] = target: T1, NFκBp65-associated protein kinase (cytosolic); test: In vitro kinase assay, GST-CTD phosphorylation by GST-NFκBp65-precipitated complexes from Molt-4 cytosolic extract; format: biochemical, human; conditions: GST-CTD substrate, FIG. 1C
T1 construct: other: cytosolic; GST-C
Description: as §2

IκBα = test: Immunoblot of cytosolic IκBα in TNF-α-treated spleen lymphocytes; format: cell-based, mouse; conditions: TNF-α 10 ng/ml, FIG. 10B
Description: The basal expression of NF-κB subunits, IκBa and cyclin-dependent kinases was examined by immunoblot analysis of cytosolic and nuclear extracts of male (M) or female (F) BALB/c and NOD mouse spleen cells (FIG. 10). In these experiments, extracts of spleen cells were subjected to SDS-PAGE on a 12.5% gel under non-reducing conditions. The separated proteins were transferred electrophoretically to a polyvinylidene difluoride (PVDF) membrane which was then incubated for 2 hours at room temperature with TBS-T (20 mM Tris-HCl, pH 7.6; 137 mM NaCl; 0.05% volume/volume Tween 20) containing 8% (weight/volume) bovine serum albumin. The membrane was then incubated for 12 h at 4° C. with TBS-T containing the appropriate polyclonal antibodies, washed 4×5 minutes with TBS-T at room temperature, incubated for 2 hours at room temperature with TBS-T containing alkaline phosphatase-conjugated secondary antibodies, washed five times with TBS-T and subjected to the alkaline phosphatase color reaction. […]
To assess the dynamics of IκBα protein expression occurring during lymphocyte activation by TNF-α treatment, subcellular fractions from lymphocytes derived from BALB/c and NOD spleen were treated with 10 ng/ml TNF-α. […] IκBα protein was readily detected in the cytosolic extracts from both unstimulated lymphocytes, BALB/c and NOD. […]

NF-κB [3] = test: EMSA of nuclear NF-κB DNA-binding activity in TNF-α-treated cell lines; format: cell-based; conditions: TNF-α 10 ng/ml, 4 h, FIG. 11A
Description: Furthermore, in the […] cell line, in which Lmp2 and Lmp7 genes have been deleted, NF-κB is not activated in response to TNF-α. The effect of TNF-α treatment on the DNA-binding activity of nuclear NF-κB was examined (FIG. 11). EMSA was performed such that cell extracts from mutant T2 cells compared to those of control T1 cells, Molt-4 cells and Jurkat cells after stimulation for 4 h in the absence (−) or presence (+) of 10 ng/ml TNF-α.
-unlabeled oligonucleotide (κB1). Double-stranded oligodeoxynucleotides were synthesized on a DNA synthesizer by the phosphoramidite method and purified on an OPC cartridge. […] The DNA-protein complexes were resolved by electrophoresis on nondenaturing 8% polyacrylamide gels with 0.5×TBE (Tris-borate-EDTA) buffer at 4° C. For competition experiments, nuclear extracts was incubated for […] at 4° C. with a 100-fold molar excess of unlabeled κB oligonucleotide before addition of the radioactive probe. Cytosolic extracts were treated with 1.2% NP-40 and 0.8% deoxycholate to dissociate IκB from NF-κB before incubation with 3^2P-labeled probe. For supershift assays, nuclear extracts were incubated with specific antibodies in 1 hour at 4° C. before addition of DNA probes. Lanes 1 correspondes to negative controls in which nuclear extract was not added.

NF-κB [4] = test: EMSA of NF-κB DNA-binding activity in nuclear extracts of TNF-α-treated spleen cells; conditions: NOD mouse spleen cells (male and female); TNF-α 10 ng/ml, 4 hours; FIG. 8A
Description: In order to assess the influence of TNF-α on NFκB in an in vitro system, a DNA/protein binding assay was undertaken. Nuclear extracts were prepared from BALB/C and NOD mice by methods described above. The binding activities were examined by EMSA with ^32P end-labeled oligonucleotide containing an NFκB recognition sequence. Spleen cells were stimulated with TNF-α treatment (10 ng/ml;+) or without TNF-α treatment (−) and nuclear extracts from the treated cells were prepared 4 hours later. Nuclear extract prepared from spleen cells of BALB/C (lanes 2-5; FIG. 8A) and NOD (lanes 6-9; FIG. 8A) mice and Molt-4 cells (lanes 10 and 11; FIG. 8A) were incubated with DNA probe as follows:
Double-stranded κB wt, κB mut or IL-R2α κB oligonucleotides were end-labeled using [α-^32P]dCTP and Klenow polymerase. Binding reactions of the DNA probe with nuclear extracts were performed at 37° C. for minutes in a total volume of 10 μl of buffer containing 10 mM Hepes (H 7.9), 50 mM KCl, 5 mM Tris-HCl (pH 7.0), 1 mM DTT, 15 mM EDTA, 10% (v/v) glycerol, 1.0 μg of poly (dI.dC), and 4 ng of the labeled probe. The DNA-protein complexes were resolved on nondenaturing 8% polyacrylamide gels. Electrophoresis was performed with 0.5×TBE buffer (4.5 mM Tris-HCl, 4.5 mM boric acid, 0.1 mM EDTA) at 4° C. A negative binding control, to which no nuclear extract was added, was run in lane 1. […]

spleen cells = test: TNF-α cytotoxicity of spleen cells (viable cell count, DNA fragmentation); format: cell-based, mouse
Description: One critical function of NFκB is to provide protection to cells from the effects of exogenous TNF-α. […] Spleen cells were cultured for 24 hours after exposure to various concentrations (2, 5, 10 or 20 ng/ml) of TNF-α, as indicated on the X axis of the figure. Viable cells remaining after TNF-α treatment are shown as a percentage of viable control (untreated) cells. Standard deviations were calculated from four independent readings within a single experiment. The survival over time of cells treated with TNF-α is charted in FIG. 13B. Spleen cells were treated with TNF-α (10 ng/ml), and viable cells were counted at various times following treatment as indicated on the X axis of the figure.
(§1) DNA fragmentation was evaluated and detected by agarose gel electrophoresis after spleen cells were cultured in 10 ng/ml TNF-α for 24 hours. […] Embryonic fibroblasts prepared from BALB/c and NOD mice were cultured DMEM containing 10% fetal bovine serum and then incubated with various concentrations of TNF-α for 24 hours (FIG. 13D, top) or with TNF-α at 10 ng/ml for the indicated times (FIG. 13D, bottom). Cell viability was assessed by trypan blue exclusion. Data are means±SD of four replicates from a representative experiment, and are expressed as a percentage of the survival value for the corresponding cells not exposed to TNF-α.

[5] = tested on: mouse embryonic fibroblasts (MEF); test: TNF-α cytotoxicity of embryonic fibroblasts (trypan blue exclusion); format: cell-based; conditions: NOD MEF; various TNF-α concentrations 24 hours or 10 ng/ml over time; FIG. 13D
Description: as §1

20S proteasome [6] = test: In vitro p105/p60Tth processing assay with mouse spleen cytosolic extracts; format: biochemical; conditions: MG115 50 μM, FIG. 12A, 12B right
Description: To investigate whether the altered abundance of p50 in NOD mouse spleen cells could be attributable to defective processing of p105 by the proteasome, the processing of p105 by cytosolic extracts of NOD mouse spleen cells was examined using recombinant p105 or the truncated version p60Tth as substrates. The in vitro p105 processing assay reaction was performed as previously described (Fan and Maniatis, 1991, supra). In brief, p105 and p60Tth expression constructs were subjected to in vitro transcription and translation in a wheat germ extract system (Promega) in the presence of [^35S]methionine. The ^35S-labeled p105 and p60th proteins were immunoprecipitated with polyclonal antibodies to p50 and purified for use as substrates. Each substrate protein was incubated for 90 minutes at 30° C. with spleen cytosolic extract (20 or40 μg of protein) in a final volume of 25 μl in the absence or presence of 10 mM ATP (Palombella et al., 1994, supra). The proteasome inhibitor MG115 was also added to the reaction mixture where indicated (FIG. 12). The processed proteins were separated by SDS-polyacrylamide gel electrophoresis (PAGE) on a 10% gel and visualized by autoradiography. […] When p60Tth was incubated with cytosolic extracts of BALB/c cells in the presence of […], mature p50 was generated (FIG. 12A, center). […]

proteasome = test: In vitro p105 processing assay with cytoplasmic extracts of T1, T2, Molt-4 and Jurkat cells; format: biochemical; conditions: 50 μg MG115; cell line cytoplasmic extracts; FIG. 12G
Description: The labeled p105 was incubated with the cytosolic extracts of these cell lines (20 or 40 μg of protein at left and center) and the reaction mixtures were incubated with (center; FIGS. 12E, F and G) or without (upper; FIGS. 12E, F and G) 10 mM ATP in a wheat germ extract system (Promega) as above. Incubations were also performed in the absence (−) or presence (+) of 50 μg MG115 (lower; FIGS. 12E, F and G). Lane 1 in all gels presented in FIGS. 12E, F and G corresponds to reaction mixtures without substrate. Incubations were performed at 30° C. for 90 minutes, after which the reaction mixtures were analyzed by SDS-PAGE and autoradiography. […] When p105 was incubated with the cytoplasmic extracts of T1 cells, Molt-4 cells and Jurkat cells in the presence of 10 mM ATP, the mature p50 was detected (FIG. 12F); however, the p50 was not generated by incubation of p105 with the cytoplasmic extracts prepared from T2 cells in the presence of 10 mM ATP (FIG. 12F, lanes 4 and 5). To verify that the maturation processing of p50 in the in vitro reaction was mediated by the proteasome processing pathway, the effect of MG115 on proteasome function was examined.

20S proteasome [7] = conditions: MG115 50 μM; Palombella et al., 1994; cited from earlier work

OC[C@H]1O[C@@H](n2cnc3cc(Cl)c(Cl)cc32)[C@H](O)[C@@H]1O [DRB, 5,6-dichloro-1-β-D-ribofuranosylbenzimidazole]
concentration required for 50% inhibition of the activity of NFκBp65-associated protein kinase [1]: 1 µM
concentration required for 50% inhibition of the activity of NFκBp65-associated protein kinase [2]: 10 µM

TNF-α
time to disappearance of cytosolic IκBα (IκBα; BALB/c lymphocytes): ≤ 40 min
cytosolic IκBα during TNF-α treatment (IκBα; NOD lymphocytes): clearly detected after 40 minutes of stimulation and then stably expressed
expression of the active nuclear form of NF-κB on EMSA (NF-κB [3]; T1, Molt-4 and Jurkat cells): markedly detected
NF-κB activity (NF-κB [3]; T2 cells (Lmp2, Lmp7 deleted)): not induced
NF-κB activation (NF-κB [4]): only slightly induced
DNA fragmentation by agarose gel electrophoresis (spleen cells; NOD but not BALB/c spleen cells, TNF-α 10 ng/ml, 24 hours, FIG. 13C): resulted in apoptosis
toxicity, cell survival (spleen cells; NOD spleen cells, TNF-α 2-20 ng/ml, 24 hours, or 10 ng/ml over time, FIG. 13A, 13B): toxic
cellular toxicity [5]: no cellular toxicity

CCC[C@@H](C=O)NC(=O)[C@H](CC(C)C)NC(=O)[C@H](CC(C)C)NC(=O)OCc1ccccc1 [MG115] (Cbz-Leu-Leu-[Nva]-aldehyde)
processing of p105 and p60Tth (20S proteasome [6]): completely inhibited
p105 processing to p50 (proteasome): clearly resulted in defective p105 processing
processing of p105 (20S proteasome [7]): prevent the processing of p105
